Structures can show the parent of a compound that is named as a salt.

Our source for the IC50 values is BindingDB's records for doi:10.7270/Q2N014XN (Srmlsc, 2007).

One test concerns the target T1, Diphosphomevalonate decarboxylase (Streptococcus pneumoniae serotype 2 (strain D39 / NCTC 7466), UniProt A0A0H2ZN59).
T1 sequence (A0A0H2ZN59 whole entry): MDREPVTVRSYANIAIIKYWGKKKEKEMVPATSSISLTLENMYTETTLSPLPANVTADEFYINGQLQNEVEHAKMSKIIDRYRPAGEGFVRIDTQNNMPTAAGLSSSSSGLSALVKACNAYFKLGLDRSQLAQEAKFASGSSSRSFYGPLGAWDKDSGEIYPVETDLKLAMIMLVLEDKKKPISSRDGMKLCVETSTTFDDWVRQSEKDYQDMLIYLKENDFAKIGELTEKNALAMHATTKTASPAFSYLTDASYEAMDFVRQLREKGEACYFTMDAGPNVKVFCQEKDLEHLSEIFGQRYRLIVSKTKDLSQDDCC
Nature of the test: S. pneumoniae DPM-DC inhibitor potency, dose response, biochemical, PK/LDH-coupled NADH fluorescence, hexokinase coupling counter-screen (AID 550).
Details: not given
Usually IC50 stands for the concentration that inhibits the measured activity by half. Low readings indicate higher potency, high ones lower potency. Turning to `COc1cccc(C(=O)OCn2nnc3ccccc3c2=O)c1` [(4-oxidanylidene-1,2,3-benzotriazin-3-yl)methyl 3-methoxybenzoate], the IC50 is more than 10000 µM.

In the case of `CCOc1ccc(N(CC(=O)NC2CCCC(C)C2C)S(=O)(=O)c2c(C)noc2C)cc1` (stereo not drawn) [MLS000117395], the IC50 is more than 10000 µM.

Molecule `Cn1/c(=N/C(=O)c2ccco2)sc2cccc(F)c21` [MLS000101506] registered a half-inhibitory concentration (IC50) of more than 10000 µM.

On to `Cc1cc(O)c(C=Nc2cccc(Cl)c2)c(=O)o1` [(3Z)-3-[(3-chloroanilino)methylene]-6-methyl-pyran-2,4-quinone], for which the 50% inhibitory concentration (IC50) is more than 10000 µM.

Consider `COc1cc(NC(=O)c2cccs2)c(C(=O)OCC(=O)NCc2ccco2)cc1OC` [4,5-dimethoxy-2-(2-thenoylamino)benzoic acid [2-(2-furfurylamino)-2-keto-ethyl] ester], for which the IC50 is more than 10000 µM.

In turn, `Cc1cccc(C)c1NC(=O)C(c1ccccc1)N1CCN(C(=O)c2ccco2)CC1` (stereo not drawn) [MLS000086418] gave a half-inhibitory concentration (IC50) of more than 10000 µM.

Take `Cc1ccccc1CN1CCN(S(=O)(=O)c2ccc(F)cc2)CC1` [1-(4-fluorophenyl)sulfonyl-4-(2-methylbenzyl)piperazine]: the IC50 was more than 10000 µM.

The molecule `O=P1(NC2CCCC2)COc2ccccc2OC1` [MLS000084153] came in with an IC50 of more than 10000 µM.

In turn, `FC(F)(F)c1cc(-c2ccco2)nc(-n2nnc3ccccc32)n1` [1-[4-(2-furanyl)-6-(trifluoromethyl)-2-pyrimidinyl]benzotriazole] displayed a 50% inhibitory concentration (IC50) of 11.2 µM.

Take `Cc1ccc2cc3cc(C(=O)N4CCCCCC4)oc3nc2c1` [1-azepanyl-(7-methyl-2-furo[2,3-b]quinolinyl)methanone]: 58.1 µM corresponded to half-maximal inhibition (IC50).

Consider `O=C(COc1cnc2ccccc2n1)NCCC1=CCCCC1` [MLS000056304], for which the half-inhibitory concentration (IC50) came out at 188 µM.

The molecule `CCn1c(SCC(=O)Nc2cccc(C(C)=O)c2)nnc1C(C)C` [MLS000073205] showed an IC50 of more than 10000 µM.

Molecule `CC1CC(C)CN(CCCNC(=O)Cn2ncc3c(=O)oc4ccccc4c32)C1` (stereo not drawn) [MLS000116997] gave an IC50 of more than 10000 µM.

In turn, `Cc1ccc(S(=O)(=O)N2CCOCC(=O)NCCOCCNC(=O)COCC2)cc1` [16-(4-methylphenyl)sulfonyl-1,7,13-trioxa-4,10,16-triazacyclooctadecane-3,11-dione] gave an IC50 of more than 10000 µM.

`COc1cc(NC(=O)c2ccc3c(c2)OCO3)c2ncccc2c1` [MLS000061736] returned an IC50 of 52 µM.

On to `Cc1cc(C(=O)CSc2nnnn2-c2ccc(Cl)cc2)c(C)n1CC1CCCO1` (stereo not drawn) [2-[1-(4-chlorophenyl)tetrazol-5-yl]sulfanyl-1-[2,5-dimethyl-1-(oxolan-2-ylmethyl)pyrrol-3-yl]ethanone], for which the half-inhibitory concentration (IC50) is more than 10000 µM.

Consider `CC(C)(CO)NC(=O)C(c1ccccc1)c1ccccc1` [MLS000062471], for which the IC50 is more than 10000 µM.

With `COC(=O)c1[nH]c2ccc(Cl)cc2c1NC(=O)CCN1CCOCC1` [5-chloro-3-[[3-(4-morpholinyl)-1-oxopropyl]amino]-1H-indole-2-carboxylic acid methyl ester], the IC50 was found to be 149 µM.

`COc1cc2c(cc1OC)C(CC(=O)N1CCOCC1)=NC(C)(C)C2` [(2Z)-2-(6,7-dimethoxy-3,3-dimethyl-2,4-dihydroisoquinolin-1-ylidene)-1-(4-morpholinyl)ethanone;hydrochloride] displayed a 50% inhibitory concentration (IC50) of 38.8 µM. Against the preceding molecule, the IC50 is about 3.8-fold lower.

On to `CCOc1ccc(-c2nnc(-c3ccncc3)o2)cc1` [2-(4-ethoxyphenyl)-5-pyridin-4-yl-1,3,4-oxadiazole], for which the 50% inhibitory concentration (IC50) worked out at 52.9 µM. This IC50 and that of the molecule before are within 1.5-fold of each other.

The molecule `O=C(CCc1nc(-c2ccccc2F)no1)NCCN1CCc2ccccc2C1` [MLS000091170] had a half-inhibitory concentration (IC50) of more than 10000 µM.

`CCCCCn1c(SCC#N)nc2cc(C(=O)NCC3CCCO3)ccc2c1=O` (stereo not drawn) [2-(cyanomethylsulfanyl)-4-oxidanylidene-N-(oxolan-2-ylmethyl)-3-pentyl-quinazoline-7-carboxamide] showed an IC50 of more than 10000 µM.

In turn, `CCOc1ncccc1C(=O)Nc1ccc2c(C)cc(=O)oc2c1` [2-ethoxy-N-(2-keto-4-methyl-chromen-7-yl)nicotinamide] had an IC50 of more than 10000 µM.

Regarding `O=C(Nc1ccc2nc(-c3ccco3)c(-c3ccco3)nc2c1)N1CCCCCC1`, the IC50 came to 46.5 µM.

As to `CCOc1ccc(C(=O)O)cc1OC` [4-ethoxy-3-methoxy-benzoic acid], the IC50 was more than 10000 µM.

Turning to `COCCOC(=O)c1c(C)oc2ccc(NS(=O)(=O)c3ccc(F)cc3)cc12` [2-methoxyethyl 5-[(4-fluorophenyl)sulfonylamino]-2-methyl-1-benzofuran-3-carboxylate], the IC50 was more than 10000 µM.

With `CCOC(=O)c1sc(Nc2nc3c(OC)cccc3s2)nc1C` [SMR000027213], half-maximal inhibition (IC50) was put at 2.35 µM.

Turning to `O=C(NCc1ccco1)c1ccccc1NS(=O)(=O)c1ccc2c(c1)OCCO2` [2-(2,3-dihydro-1,4-benzodioxin-6-ylsulfonylamino)-N-(2-furanylmethyl)benzamide], 42.4 µM corresponded to half-maximal inhibition (IC50).

Take `Cn1c(=O)[nH]c(=O)c2c1nc(NC1CCCCC1)n2Cc1ccccc1` [MLS000083828]: the IC50 is more than 10000 µM.

In turn, `O=C(Nc1ccc(F)cc1)N(CCCN1CCOCC1)Cc1cc2cc3c(cc2[nH]c1=O)OCO3` [3-(4-fluorophenyl)-1-[3-(4-morpholinyl)propyl]-1-[(6-oxo-5H-[1,3]dioxolo[4,5-g]quinolin-7-yl)methyl]urea] returned a half-maximal inhibitory concentration (IC50) of 17.6 µM.

`Cc1ccc(-n2c(SCC(=O)NCc3ccco3)nnc2-c2cccnc2)c(C)c1` [MLS000058402] had an IC50 of more than 10000 µM.

As for `COc1ccccc1-c1nc(C(N)=O)c2[nH]c(=O)n(-c3cccc(C)c3)c2n1` [MLS000094139], the IC50 is 21.6 µM.

`CC(C)/N=c1/cc2n(-c3ccc(Cl)cc3)c3ccccc3nc-2cc1Nc1ccc(Cl)cc1` gave an IC50 of 2.89 µM.

Consider `CC(C)c1nc(NCC2CCCO2)c(C#N)c2c1COC(C)(C)C2` (stereo not drawn) [3,3-dimethyl-6-(2-oxolanylmethylamino)-8-propan-2-yl-1,4-dihydropyrano[3,4-c]pyridine-5-carbonitrile], for which the half-maximal inhibitory concentration (IC50) was found to be 9.97 µM.

On to `Cc1cc(C)n2nc3nc(N4CCCCC4)nc(-c4ccco4)c3c2n1` [4-(2-furyl)-6,8-dimethyl-2-piperidin-1-ylpyrimido[4',5':3,4]pyrazolo[1,5-a]pyrimidine], for which the midpoint of inhibition, the IC50, lay at 111 µM.

`CCOc1ccc(N2CC(C(=O)OC)CC2=O)cc1` (stereo not drawn) [1-(4-ethoxyphenyl)-5-oxo-3-pyrrolidinecarboxylic acid methyl ester] showed an IC50 of more than 10000 µM.

`CC1(C)CC(=O)c2cc(OCC(=O)N3CCN(c4ccccc4F)CC3)ccc2O1` [6-[2-[4-(2-fluorophenyl)-1-piperazinyl]-2-oxoethoxy]-2,2-dimethyl-3,4-dihydro-2H-1-benzopyran-4-one] had an IC50 of 37 µM.

In turn, `COc1ccc(-c2ccc(-c3nnc(-c4ccncc4)o3)cc2)cc1` [2-[4-(4-methoxyphenyl)phenyl]-5-(4-pyridyl)-1,3,4-oxadiazole] came in with a 50% inhibitory concentration (IC50) of 123 µM.

`Cc1ccccc1Cn1cc(NC(=O)c2cc3nc(-c4ccco4)cc(C(F)(F)F)n3n2)cn1` [5-(2-furanyl)-N-[1-[(2-methylphenyl)methyl]-4-pyrazolyl]-7-(trifluoromethyl)-2-pyrazolo[1,5-a]pyrimidinecarboxamide] had an IC50 of 31.4 µM.

The molecule `CCC(=O)N(Cc1cc2cc(OC)ccc2[nH]c1=O)c1cc(C)ccc1C` showed a half-inhibitory concentration (IC50) of 88.5 µM.

`CCc1nnc(NC(=O)CSc2nnc(COc3ccccc3)n2Cc2ccccc2)s1` [2-(4-Benzyl-5-phenoxymethyl-4H-[1,2,4]triazol-3-ylsulfanyl)-N-(5-ethyl-[1,3,4]thiadiazol-2-yl)-acetamide]: the half-inhibitory concentration (IC50) is more than 10000 µM.

`CC(C)c1ccc(-c2nc3c([nH]2)c(=O)n(C)c(=O)n3C)cc1` [1,3-dimethyl-8-(4-propan-2-ylphenyl)-7H-purine-2,6-dione] gave an IC50 of 21.8 µM.

`COCCNC(=O)C(C#N)c1nc2ccccc2nc1N1CCCCCC1` (stereo not drawn) [2-[3-(1-azepanyl)-2-quinoxalinyl]-2-cyano-N-(2-methoxyethyl)acetamide] displayed a concentration for half-maximal inhibition (IC50) of 190 µM.

On to `Cn1c(-c2ccc(N)cc2)nc2ccccc21` [4-(1-methyl-2-benzimidazolyl)aniline], for which the IC50 was more than 10000 µM.

`CN(C)C(=O)Nc1cnc2ccccc2c1` [1,1-dimethyl-3-(3-quinolinyl)urea] came in with an IC50 of more than 10000 µM.

In the case of `Nc1c(S(=O)(=O)c2cccs2)c2nc3ccccc3nc2n1Cc1ccc2c(c1)OCO2` [1-(1,3-benzodioxol-5-ylmethyl)-3-thiophen-2-ylsulfonyl-2-pyrrolo[3,2-b]quinoxalinamine], inhibition was half-maximal at 31.9 µM (IC50).

The test is the same for the next values; noted with them: inactive by the depositor's call.
On to `Cc1csc2ncc(C(=O)Nc3ccccc3Cl)c(=O)n12` [MLS000102002], for which 47.4 µM corresponded to half-maximal inhibition (IC50).

With `COC(=O)Sc1nnc(-c2ccc(Br)cc2)o1` [MLS000084961], the half-maximal inhibitory concentration (IC50) was 16.4 µM.

`CCCCNC(=O)c1ccc2nc(-c3ccco3)c(-c3ccco3)nc2c1` [MLS000119995] had an IC50 of 75.6 µM.

`O=c1cccccc1NCc1ccccc1` [2-(benzylamino)cyclohepta-2,4,6-trien-1-one] had a 50% inhibitory concentration (IC50) of 278 µM.

`CCN(CC)c1ccc(C=Nn2c(=S)[nH]nc(C)c2=O)cc1` [4-[[4-(diethylamino)phenyl]methylideneamino]-6-methyl-3-sulfanylidene-2H-1,2,4-triazin-5-one] yielded an IC50 of 20.2 µM.

For the molecule `C/C(C=Nn1cnnc1)=C\c1ccco1` [(E)-3-(2-furanyl)-2-methyl-N-(1,2,4-triazol-4-yl)-2-propen-1-imine], it took 125 µM to reach half-maximal inhibition (IC50).

For `Cc1cc(C)c2c(=O)n(CC(=O)NCCCN3CCN(c4ccccc4F)CC3)sc2n1` [2-(4,6-dimethyl-3-oxidanylidene-[1,2]thiazolo[5,4-b]pyridin-2-yl)-N-[3-[4-(2-fluorophenyl)piperazin-1-yl]propyl]ethanamide], the concentration for half-maximal inhibition (IC50) stood at 36.6 µM.
